From the NIST ThermoML archive (doi:10.1016/j.fluid.2017.06.018) come the findings set out here.

The structures appear in SMILES notation. Values joined by “and” are separate entries in the source; they are usually repeats but may differ in a detail not shown here. Equal values may be shown once. Numbers after ± are expanded uncertainties.

For data set [1] the following is noted: 100 kPa, Liquid; for viscosity: Falling or rolling sphere viscometry; for mass density: Vibrating tube method.
Data set [2] in a line: refractive index (Na D-line) (dimensionless). The conditions noted are these: 100 kPa, Liquid, Standard Abbe refractometry.
Data set [3] is described as follows: xn = mol fraction of the nth substance listed. The conditions noted are these: 100 kPa, Liquid, x1 = 1; for viscosity: Falling or rolling sphere viscometry; for mass density: Vibrating tube method.
Data set [4] is described as follows: refractive index (Na D-line) (dimensionless); xn = mol fraction of the nth substance listed. Conditions: 100 kPa, Liquid, Standard Abbe refractometry, x1 = 1.

The term viscosity denotes the resistance of a fluid to flow. As usually defined, the mass density is mass per unit of volume. What is called refractive index is the speed of light in vacuum divided by its phase velocity in the sample.

Turning to `NCCO` [2-aminoethan-1-ol], the viscosity was 18.72 ± 0.44 mPa·s in data set [1] (298.15 K); 15.15 ± 0.36 mPa·s in data set [1] (303.15 K); 11.9 ± 0.28 mPa·s and 11.96 ± 0.28 mPa·s in data set [1] (308.15 K). Further, the mass density was 1012.4 ± 2.2 kg/m3 in data set [1] (298.15 K), 1008.4 ± 2.1 kg/m3 in data set [1] (303.15 K) and 1004.5 ± 2.1 kg/m3 in data set [1] (308.15 K). Further, the values for the refractive index in data set [2] (298.15 K), in data set [2] (303.15 K) and in data set [2] (308.15 K) were 1.4535 ± 0.0021, 1.4519 ± 0.0021 and 1.4505 ± 0.0021, respectively.

Take `NCCNCCO` [N-(2-aminoethyl)ethanolamine]: the viscosity was found to be 98.62 ± 2.9 mPa·s in data set [1] (298.15 K), 70.57 ± 1.6 mPa·s in data set [1] (303.15 K) and 53.11 ± 1.1 mPa·s in data set [1] (308.15 K). Also, the mass density in data set [1] (298.15 K) was determined as 1025.8 ± 2 kg/m3; in data set [1] (303.15 K) it was 1021.3 ± 2 kg/m3; in data set [1] (308.15 K), 1016.3 ± 2 kg/m3. In addition, the results for the refractive index in data set [2] (298.15 K), in data set [2] (303.15 K) and in data set [2] (308.15 K) were 1.4843 ± 0.002, 1.4827 ± 0.002 and 1.4811 ± 0.002, respectively.

With `NCCNCCN` [di(2-aminoethyl)amine], the viscosity was 5.63 ± 0.13 mPa·s in data set [1] (298.15 K), 4.5 ± 0.11 mPa·s in data set [1] (303.15 K) and 3.85 ± 0.09 mPa·s in data set [1] (308.15 K). The mass density was determined as 945.8 ± 2.1 kg/m3 in data set [1] (298.15 K), 942.1 ± 2.1 kg/m3 in data set [1] (303.15 K) and 937.8 ± 2.1 kg/m3 in data set [1] (308.15 K). The refractive index was found to be 1.4822 ± 0.0021 in data set [2] (298.15 K), 1.4808 ± 0.0021 in data set [2] (303.15 K) and 1.4793 ± 0.0021 in data set [2] (308.15 K).

As for `NCCO` [2-aminoethan-1-ol] + NCCNCCN, the viscosity in data set [3] (298.15 K) was 18.72 ± 0.44 mPa·s; in data set [3] (303.15 K), 15.15 ± 0.36 mPa·s; in data set [3] (308.15 K), 11.9 ± 0.28 mPa·s. Moreover, the mass density in data set [3] (298.15 K) amounted to 1012.4 ± 2.2 kg/m3; in data set [3] (303.15 K), 1008.4 ± 2.1 kg/m3; in data set [3] (308.15 K) it was 1004.5 ± 2.1 kg/m3. Moreover, the refractive index in data set [4] (298.15 K) was 1.4535 ± 0.0021; in data set [4] (303.15 K) it was 1.4519 ± 0.0021; in data set [4] (308.15 K) it was 1.4505 ± 0.0021.

For the compound `NCCO` [2-aminoethan-1-ol] + NCCNCCO, the viscosity in data set [3] (298.15 K) came out at 18.72 ± 0.44 mPa·s; in data set [3] (303.15 K), 15.15 ± 0.36 mPa·s; in data set [3] (308.15 K), 11.96 ± 0.28 mPa·s. The mass density is on record as 1012.4 ± 2.2 kg/m3 in data set [3] (298.15 K), 1008.4 ± 2.1 kg/m3 in data set [3] (303.15 K) and 1004.5 ± 2.1 kg/m3 in data set [3] (308.15 K). For the same compound, the refractive index amounted to 1.4535 ± 0.0021 in data set [4] (298.15 K), 1.4519 ± 0.0021 in data set [4] (303.15 K) and 1.4505 ± 0.0021 in data set [4] (308.15 K).
